In data set [1] the test system is MucilAir™-Pool human airway epithelium. Briefly: Lactate dehydrogenase (LDH) cytotoxicity assay on MucilAir-Pool, Phase 1. The data set is classed as cell-based. The protocol: (§1) The testing strategies includes basolateral exposure of test compounds on MucilAir™-Pool.
(§2) Global markers of Toxicity included (1) Tissue integrity monitoring: Trans-epithelial electrical resistance (TEER) measurement and (2) Cytotoxicity: Lactate dehydrogenase (LDH) assay.
Repeated basolateral exposure once a day of test compounds on MucilAir™-Pool. Transepithelial electrical resistance (TEER) was assessed each day. LDH release indicating cytotoxicity, was measured at Day 2 and 3 (24 hours accumulation). Cilia beating frequency (CBF) was measured once, at the end of the experiment, at Day 3. (FIG. 7) […]
Lactate dehydrogenase is a stable cytoplasmic enzyme that is rapidly released into the culture medium upon rupture of the plasma membrane. 100 μL basolateral medium collected at each time-point was incubated with the reaction mixture of the Cytotoxicity Detection Kit^PLUS, following manufacturer's instructions (Sigma, Roche, 11644793001). The amount of the released LDH was then quantified by measuring the absorbance of each sample at 490 nm with a microplate reader. To determine the percentage of cytotoxicity, the following equation was used (A=absorbance values): Cytotoxicity (%)=(A (exp value)−A (low control)/A (high control)−A (low control))*100
The high control value was obtained by 10% Triton X-100 treatment 24 hours prior to the assay. Triton X-100 causes a massive LDH release and corresponds to 100% cytotoxicity.

For data set [2], the system named is SARS-CoV-2. Briefly: SARS-CoV-2 apical infectious titre in MucilAir-Pool (TCID50). As to conditions: for reduction of SARS-CoV-2 titre at apical side: 48 hours.
The conditions of data set [3]: cited from earlier work.
The conditions of data set [4]: over the tolerated dose range; cited from earlier work.
Data set [5] in a line: Pharmacokinetic simulations using CELADEN castanospermine parameters. The arrangement: species or system human. As to conditions: linear extrapolation. As for the experimental part: It is known that a steady state minimum castanospermine concentration of 400 nanograms/ml is associated with a 50 mg/kg BID dose in mice and that the antiviral effect of celgosivir in vivo seems to be correlated with the minimum steady state concentration of castanospermine. […] International Publication No. WO 2014/143907 discloses pharmacokinetic parameters for castanospermine for the CELADEN study. […] Extrapolating linearly, therefore, the minimum protective dose (achieving 400 nanograms/ml steady state minimum) is approximately 40 mg every 6h, 75 mg every 8 h and 225 mg every 12 h. Further, WO 2014/143907 discloses that the CELADEN study regimen produce a steady state maximum castanospermine concentration of 5100 nanograms/ml. […] The FDA has published generic scaling factors to adjust mg/kg dosing in animals to mg/kg dosing in humans. Generically for mice, that scaling factor is 12. Therefore, 50 mg/kg BID is equivalent to a dose of 4.2 mg/kg BID in humans, which for a 60 kg human is equivalent to 250 mg. The same dose administered three or four times daily is equivalent to 167 mg and 125 mg and 2.8 and 2.1 mg/kg respectively. In a 60 kg human, the maximum single dose is 6.7 mg/kg, and the maximum daily dose is 10 mg/kg.

Data set [6] relates to Influenza A H1N1/California/07/2009. Briefly: CPE inhibition assay (visual and neutral red). As to conditions: for EC50: Influenza A virus, H1N1; for EC50 (cell spans EC50, CC50, SI): MA-104 or MDCK, Visual or Neutral Red, concentration range 0.3-300.
Data set [7] has as its system Influenza B/Brisbane/60/2008. The data set can be described thus: CPE inhibition assay (visual and neutral red). As to conditions: for EC50: Influenza B virus; for EC50 (cell spans EC50, CC50, SI): MA-104 or MDCK, Visual or Neutral Red, concentration range 0.3-300.
Data set [8] has as its system MucilAir™-Pool human airway epithelium infected with SARS-CoV-2. Briefly: Tissue integrity (TEER) upon SARS-CoV-2 infection in MucilAir-Pool, Phase 2. Format: cell-based.
The test system of data set [9] is Influenza H5 N1/Duck/MN/1525/81. Briefly: organism not typed.
Data set [10] has as its system MucilAir™-Pool human airway epithelium. Briefly: Cilia beating frequency (CBF) on MucilAir-Pool, Phase 1. Format: cell-based. As to conditions: Day 3, room temperature. As for the experimental part:
Effect on cilia included cilia motion: Cilia Beating Frequency (CBF).
(§3) Repeated basolateral exposure once a day of test compounds on MucilAir™-Pool. Transepithelial electrical resistance (TEER) was assessed each day. LDH release indicating cytotoxicity, was measured at Day 2 and 3 (24 hours accumulation). Cilia beating frequency (CBF) was measured once, at the end of the experiment, at Day 3. (FIG. 7)
(§4) Number of concentrations: 3 doses • Celgosivir=100, 30 and […] on basolateral side in 0.2% DMSO and 2% fetal bovine serum
Cilia beating frequency was monitored using a MAKO G030B camera connected to a ZEISS Primovert microscope with a 5× objective.
CBF measurement is based on the capture of 256 frames at high frequency rate (125 frames per second) at room temperature via the specific package of software. The frequency is expressed as Hertz and was calculated using an Epithelix software.

The test system is the same in data set [11]. The data set can be described thus: Tissue integrity (TEER) of uninfected MucilAir-Pool, Phase 1. The data set is classed as cell-based. As to conditions: all three tested concentrations, up to three days; threshold 100 Ω·cm^2. The protocol: as §1, §2, §3, §4
TEER is a dynamic parameter that reflects the state of epithelia and is typically between 200 to 600 Ω·cm^2. An increase of the TEER value reflects a blockage of the ion channel activities. A notable decrease of the TEER values (but >100 Ω·cm^2) could be observed in certain cases, reflecting an activation of the ion channels. Disruption of cellular junction or holes in the epithelia result in TEER values below 100 Ω·cm^2. […]
After addition of 200 μl of 0.9% saline solution to the apical compartment of MucilAir™ cultures, resistance was measured with an EVOMX volt-ohm-meter (World Precision Instruments UK, Stevenage) for each condition. […]

Data set [12] has as its system Influenza H5 N1/Duck/MN/1525/81.
In data set [13] the test system is SARS-CoV-2. The data set can be described thus: SARS-CoV-2 apical replication in MucilAir-Pool (genome copies ORF1b-nsp14, Taqman RT-PCR). Format: cell-based.
Data set [14] has as its system endogenous esterases. As to conditions: Kang (1996) Glycobiology; cited from earlier work.
Data set [15] relates to Human rhinovirus 14/1059. The data set can be described thus: CPE inhibition assay (visual and neutral red). As to conditions: for EC50 (cell spans EC50, CC50, SI): MA-104 or MDCK, Visual or Neutral Red, concentration range 0.3-300; for EC50: Rhinovirus B.
Data set [16] relates to Parainfluenza virus 3/14702. The data set can be described thus: CPE inhibition assay (visual and neutral red). As to conditions: for EC50 (cell spans EC50, CC50, SI): MA-104 or MDCK, Visual or Neutral Red, concentration range 0.3-300.
For data set [17], the system named is Influenza B/Florida/4/2006. The data set can be described thus: CPE inhibition assay (visual and neutral red). As to conditions: for EC50: Influenza B virus; for EC50 (cell spans EC50, CC50, SI): MA-104 or MDCK, Visual or Neutral Red, concentration range 0.3-300.
For data set [18] the following is noted: mice; 50 mg/kg BID dose; cited from earlier work.

The values below come from patent US11369592B2 (priority 2020, dated 2022).

Where two headings read alike, the source gives them in different places.

Regarding Triton X-100 [reference compound], the “induced toxicity (LDH release)” value in data set [1] (10% Triton X-100 solution, apical, 24 h, high control) is listed as 100%.

As usually defined, the EC50 is the concentration giving half of the maximal effect. `CCCC(=O)O[C@H]1CN2CC[C@H](O)[C@@H]2[C@@H](O)[C@@H]1O` [Celgosivir, 6-O-butanoyl castanospermine]: the “reduction of SARS-CoV-2 titre at apical side” value in data set [2] (30 mM (so in the source)) came out at 1 log10; in data set [2] (100 mM (so in the source)), 1.9 log10. The “yield of viral progeny” value in data set [2] (3 microM) is recorded as “diminished extent”; in data set [2] (30 and 100 microM), “decreased”. Further, the “reducing effect on SARS-CoV-2 titre” value in data set [2] (72 hours, concentration not given) was 1.1 log. For the same compound, the adverse event profile entry in [3] (CELADEN study dose) is given as “higher incidence of GI effects, but not increased severity”. For the same compound, the “maximum daily dose as a total dose” value in data set [3] (human, in theory) is recorded as 600 mg. In [3] (human, in theory), the “maximum dose as a single dose” value was 400 mg. In data set [4], the pharmacokinetics versus dose result is “linear with dose”. Moreover, the “minimum protective dose (achieving 400 nanograms/ml steady state minimum)” value is reported as “approximately 40 mg” in data set [5] (every 6h), roughly 75 mg in data set [5] (every 8 h) and roughly 225 mg in data set [5] (every 12 h). Besides, the EC50 in [6], in [7], in data set [9], in [15], in [16] and in data set [17] was greater than 300 µM throughout. In addition, the “EC50 (cell spans EC50, CC50, SI)” value in data set [6], in [7], in data set [12], in data set [15], in [16] and in data set [17] was “Not active” each time. For the same compound, the “effect against virus-induced cytopathology” value in data set [8] (3 microM) is “diminished extent”; in data set [8] (30 and 100 microM), “protective effective”. For the same compound, the “SARS-CoV-2 induced decrease of TEER” value in data set [8] (30 and 100 μM, 48 and 72 hours post-inoculation) was “prevented”. Moreover, in data set [1] (Day 2 and 3, threshold limit 5% cytotoxicity), the “cytotoxicity (LDH release)” value is on record as “No cytotoxicity”. Further, in data set [1] (concentrations at or below 100 microM), the “evidence of cytotoxicity (TEER, cytotoxicity and CBF values versus controls)” value is on record as “did not exhibit evidence of cytoxicity”. In data set [10], the “cilia motion (cilia beating frequency)” value was “did not modify significantly”. Also, the “Epithelial barrier function (TEER)” value in [11] is > 100 Ω·cm^2. For the same compound, the “reduction of viruses (genome copies)” value in data set [13] (30 mM (so in the source), 48 hours) was 1.2 log10; in data set [13] (30 mM (so in the source), later time point (72 hours)) it was 0.9 log10; in data set [13] (100 mM (so in the source), 48 hours), 1.4 log10; in [13] (100 mM (so in the source), later time point (72 hours)), 1 log10. In [13] (3 doses, basolateral once a day for 3 days), the “inhibition of SARS-CoV-2 replication, dose relation” value was “dose dependent inhibition”. Besides, the SARS-CoV-2 replication entry in data set [13] (3 microM) was “diminished extent”; in data set [13] (30 and 100 microM), “decreased”. The conversion to castanospermine entry in data set [14] is on record as “rapidly converted by endogenous esterases to castanospermine”. Moreover, in [14], the “crossing of cell membranes” value is “readily crosses cell membranes”.

On to `O[C@H]1[C@H](O)[C@@H](O)CN2CC[C@H](O)[C@H]12` [castanospermine, (1S,6S,7R,8aR)-Tetrahydroxyoctahydroindolizine], for which the “steady state maximum castanospermine concentration” value in data set [3] (CELADEN study regimen) was 5100 nanograms/ml. Besides, the EC50 in data set [6], in data set [7], in [9], in data set [15], in data set [16] and in [17] was greater than 300 µM in each case. Also, the “EC50 (cell spans EC50, CC50, SI)” value was “Not active” in data set [6]; “Not active” in data set [7]; “Not active” in [12] (MA-104 or MDCK, Visual or Neutral Red, concentration range 0.3-300); “Not active” in data set [15]; “Not active” in [16]; “Not active” in data set [17]. Also, the “steady state minimum castanospermine concentration” value in data set [18] is given as 400 nanograms/ml.

`NC(=O)c1ncn([C@@H]2O[C@H](CO)[C@@H](O)[C@H]2O)n1` [Ribavirin, reference compound]: the EC50 in data set [6], in [7], in [9], in [15], in data set [16] and in data set [17] was less than 10 µM in each case.
